US20250154152A1, “INHIBITORS OF NAEGLERIA FOWLERI” (Wisconsin Alumni Research Foundation, priority 2023, published 2025)

Test system: N. fowleri strain Nf69 (ATCC 30215) trophozoites
Assay: Determination of EC50 values against Naegleria fowleri (growth inhibition, CellTiter Glo, 48 h)
Type: cell-based
Details: ATCC30215, N. fowleri Nf69 trophozoites, 48 h culture, 37° C., CellTiter Glo luminescence, read-out: EC50 uM against N. fowleri
Protocol: N. fowleri strain Nf69 (ATCC 30215) trophozoites were cultured axenically. Amoeba were seeded at […] in 100 μL of the indicated medium in white TC-treated 96-well plates (Thermo Scientific Nunc Microwell 136101). Cells were seeded into Nelson's Complete Media (NCM, 0.17% liver infusion broth (BD Difco, Franklin Lakes, NJ), 0.17% glucose, 0.012% sodium chloride, 0.0136% potassium phosphate monobasic, 0.0142% sodium phosphate dibasic, 0.0004% calcium chloride, 0.0002% magnesium sulfate, 10% heat-inactivated fetal bovine serum (FBS), 1% penicillin-streptomycin) at 37° C. in 96-well tissue culture plates. Vehicle or compound at concentrations initially ranging from 20 to 0.375 μM were added to cells, followed by culture for 48 h (37° C., 5% CO2). Plates were equilibrated to rt for 15 min and CellTiter Glo reagent was added followed by orbital shaking for 2 min. After an additional incubation (rt, 10 min), luminescence was scored on a BioTek Synergy H1 microplate reader. Luminescence values were used to calculate percent cell growth inhibition (based on controls) for each concentration of compound tested. Averages of triplicates were calculated and fit to dose-response curves for the determination of EC50 values, using Prism 9.0 (GraphPad Software, San Diego, CA). […] Other controls included media alone, cells and media, and vehicle and media. For very potent compounds, concentration of reagent in the dose-response assays were reduced to provide an appropriate range for EC50 value resolution.
Compounds of the present technology were tested for growth inhibition of N. fowleri per General Procedure 13, above.

EC50 [µM] | SMILES
0.1 to 1 | CC(C)NCCN1CCC[C@@H]2c3nc4cc(Cl)c(Cl)cc4c(=O)n3CC[C@H]21 (racemic) [trans-7aa, (±)-(4aR,13bS)-10,11-dichloro-4-(2-(isopropylamino)ethyl)-1,2,3,4,4a,5,6,13b-octahydro-8H-[1,6]naphthyridino[5,6-b]quinazolin-8-one]
0.0001 to 0.1 | O=c1c2cc(Cl)c(Cl)cc2nc2n1CC[C@@H]1[C@@H]2CCCN1CC1CCOCC1 (racemic) [trans-7b, (±)-(4aR,13bS)-10,11-dichloro-4-((tetrahydro-2H-pyran-4-yl)methyl)-1,2,3,4,4a,5,6,13b-octahydro-8H-[1,6]naphthyridino[5,6-b]quinazolin-8-one]
0.0001 to 0.1 | O=c1c2cc(Cl)c(Cl)cc2nc2n1CC[C@@H]1[C@@H]2CCCN1Cc1cccnc1 (racemic) [trans-7bb, (±)-(4aR,13bS)-10,11-dichloro-4-(pyridin-3-ylmethyl)-1,2,3,4,4a,5,6,13b-octahydro-8H-[1,6]naphthyridino[5,6-b]quinazolin-8-one]
0.1 to 1 | CN(C)C(=O)CN1CCC[C@@H]2c3nc4cc(Cl)c(Cl)cc4c(=O)n3CC[C@H]21 (racemic) [trans-7c, (±)-2-((4aR,13bS)-10,11-dichloro-8-oxo-2,3,5,6,8,13b-hexahydro-1H-[1,6]naphthyridino[5,6-b]quinazolin-4(4aH)-yl)-N,N-dimethylacetamide]
0.0001 to 0.1 | CC(=O)CN1CCC[C@@H]2c3nc4cc(Cl)c(Cl)cc4c(=O)n3CC[C@H]21 (racemic) [trans-7cc, (±)-(4aR,13bS)-10,11-dichloro-4-(2-oxopropyl)-1,2,3,4,4a,5,6,13b-octahydro-8H-[1,6]naphthyridino[5,6-b]quinazolin-8-one]
> 10 | CC(C)(C)C(=O)N1CCC[C@@H]2c3nc4cc(Cl)c(Cl)cc4c(=O)n3CC[C@H]21 (racemic) [trans-7d, (±)-(4aR,13bS)-10,11-dichloro-4-pivaloyl-1,2,3,4,4a,5,6,13b-octahydro-8H-[1,6]naphthyridino[5,6-b]quinazolin-8-one]
0.0001 to 0.1 | COc1cc2nc3n(c(=O)c2cc1Cl)CC[C@@H]1[C@@H]3CCCN1CC1COC1 (racemic) [trans-7dd, (±)-(4aR,13bS)-10-chloro-11-methoxy-4-(oxetan-3-ylmethyl)-1,2,3,4,4a,5,6,13b-octahydro-8H-[1,6]naphthyridino[5,6-b]quinazolin-8-one]
> 10 | O=C(C1CCOCC1)N1CCC[C@@H]2c3nc4cc(Cl)c(Cl)cc4c(=O)n3CC[C@H]21 (racemic) [trans-7e, (±)-(4aR,13bS)-10,11-dichloro-4-(tetrahydro-2H-pyran-4-carbonyl)-1,2,3,4,4a,5,6,13b-octahydro-8H-[1,6]naphthyridino[5,6-b]quinazolin-8-one]
0.1 to 1 | COc1cc2nc3n(c(=O)c2cc1Cl)CC[C@@H]1[C@@H]3CCCN1CC(C)C (racemic) [trans-7ee, (±)-(4aR,13bS)-10-chloro-4-isobutyl-11-methoxy-1,2,3,4,4a,5,6,13b-octahydro-8H-[1,6]naphthyridino[5,6-b]quinazolin-8-one]
> 10 | O=C(N1CCOCC1)N1CCC[C@@H]2c3nc4cc(Cl)c(Cl)cc4c(=O)n3CC[C@H]21 (racemic) [trans-7f, (±)-(4aR,13bS)-10,11-dichloro-4-(morpholine-4-carbonyl)-1,2,3,4,4a,5,6,13b-octahydro-8H-[1,6]naphthyridino[5,6-b]quinazolin-8-one]
0.1 to 1 | COc1cc2nc3n(c(=O)c2cc1Cl)CC[C@@H]1[C@@H]3CCCN1CCOC(C)C (racemic) [trans-7ff, (±)-(4aR,13bS)-10-chloro-4-(2-isopropoxyethyl)-11-methoxy-1,2,3,4,4a,5,6,13b-octahydro-8H-[1,6]naphthyridino[5,6-b]quinazolin-8-one]
0.1 to 1 | CN(C)CC(=O)N1CCC[C@@H]2c3nc4cc(Cl)c(Cl)cc4c(=O)n3CC[C@H]21 (racemic) [trans-7g, (±)-(4aR,13bS)-10,11-dichloro-4-(dimethylglycyl)-1,2,3,4,4a,5,6,13b-octahydro-8H-[1,6]naphthyridino[5,6-b]quinazolin-8-one]
0.0001 to 0.1 | COc1cc2nc3n(c(=O)c2cc1Cl)CC[C@@H]1[C@@H]3CCCN1CC1CC1 (racemic) [trans-7gg, (±)-(4aR,13bS)-10-chloro-4-(cyclopropylmethyl)-11-methoxy-1,2,3,4,4a,5,6,13b-octahydro-8H-[1,6]naphthyridino[5,6-b]quinazolin-8-one]
> 10 | O=C(c1ccccc1)N1CCC[C@@H]2c3nc4cc(Cl)c(Cl)cc4c(=O)n3CC[C@H]21 (racemic) [trans-7h, (±)-(4aR,13bS)-4-benzoyl-10,11-dichloro-1,2,3,4,4a,5,6,13b-octahydro-8H-[1,6]naphthyridino[5,6-b]quinazolin-8-one]
0.0001 to 0.1 | COc1cc2nc3n(c(=O)c2cc1Cl)CC[C@@H]1[C@@H]3CCCN1CC1CCC1 (racemic) [trans-7hh, (±)-(4aR,13bS)-10-chloro-4-(cyclobutylmethyl)-11-methoxy-1,2,3,4,4a,5,6,13b-octahydro-8H-[1,6]naphthyridino[5,6-b]quinazolin-8-one]
0.0001 to 0.1 | COCCN1CCC[C@@H]2c3nc4cc(Cl)c(Cl)cc4c(=O)n3CC[C@H]21 (racemic) [trans-7i, (±)-(4aR,13bS)-10,11-dichloro-4-(2-methoxyethyl)-1,2,3,4,4a,5,6,13b-octahydro-8H-[1,6]naphthyridino[5,6-b]quinazolin-8-one]
0.1 to 1 | COc1cc2nc3n(c(=O)c2cc1Cl)CC[C@@H]1[C@@H]3CCCN1Cc1cccnc1 (racemic) [trans-7ii, (±)-(4aR,13bS)-10-chloro-11-methoxy-4-(pyridin-3-ylmethyl)-1,2,3,4,4a,5,6,13b-octahydro-8H-[1,6]naphthyridino[5,6-b]quinazolin-8-one]
0.1 to 1 | O=c1c2cc(Cl)c(Cl)cc2nc2n1CC[C@@H]1[C@@H]2CCCN1Cc1ccncc1 (racemic) [trans-7k, (±)-(4aR,13bS)-10,11-dichloro-4-(pyridin-4-ylmethyl)-1,2,3,4,4a,5,6,13b-octahydro-8H-[1,6]naphthyridino[5,6-b]quinazolin-8-one]
0.1 to 1 | COc1cc2nc3n(c(=O)c2cc1C#N)CC[C@@H]1[C@@H]3CCCN1CC1COC1 (racemic) [trans-7kk, (±)-(4aR,13bS)-11-methoxy-4-(oxetan-3-ylmethyl)-8-oxo-2,3,4,4a,5,6,8,13b-octahydro-1H-[1,6]naphthyridino[5,6-b]quinazoline-10-carbonitrile]
0.0001 to 0.1 | CC(C)CN1CCC[C@@H]2c3nc4cc(Cl)c(Cl)cc4c(=O)n3CC[C@H]21 (racemic) [trans-7l, (±)-(4aR,13bS)-10,11-dichloro-4-isobutyl-1,2,3,4,4a,5,6,13b-octahydro-8H-[1,6]naphthyridino[5,6-b]quinazolin-8-one]
0.0001 to 0.1 | O=c1c2cc(Cl)c(Cl)cc2nc2n1CC[C@@H]1[C@@H]2CCCN1CC1COC1 (racemic) [trans-7m, (±)-(4aR,13bS)-10,11-dichloro-4-(oxetan-3-ylmethyl)-1,2,3,4,4a,5,6,13b-octahydro-8H-[1,6]naphthyridino[5,6-b]quinazolin-8-one]

SMILES | EC50 [µM]
O=c1c2cc(Cl)ccc2nc2n1CC[C@H]1NCCC[C@H]21 (racemic) [trans-6a, (±)-(4aR,13bS)-10-chloro-1,2,3,4,4a,5,6,13b-octahydro-8H-[1,6]naphthyridino[5,6-b]quinazolin-8-one] | 1 to 10
O=c1c2cc(Cl)c(Cl)cc2nc2n1CC[C@H]1NCCC[C@H]21 (racemic) [trans-6b, (±)-(4aR,13bS)-10,11-dichloro-1,2,3,4,4a,5,6,13b-octahydro-8H-[1,6]naphthyridino[5,6-b]quinazolin-8-one] | 1 to 10
COc1cc2nc3n(c(=O)c2cc1Cl)CC[C@H]1NCCC[C@H]31 (racemic) [trans-6c, (±)-(4aR,13bS)-10-chloro-11-methoxy-1,2,3,4,4a,5,6,13b-octahydro-8H-[1,6]naphthyridino[5,6-b]quinazolin-8-one] | 1 to 10
CC(C)N1CCC[C@@H]2c3nc4cc(Cl)c(Cl)cc4c(=O)n3CC[C@H]21 (racemic) [trans-7a, (±)-(4aR,13bS)-10,11-dichloro-4-isopropyl-1,2,3,4,4a,5,6,13b-octahydro-8H-[1,6]naphthyridino[5,6-b]quinazolin-8-one] | 0.0001 to 0.1
O=c1c2cc(Cl)c(Cl)cc2nc2n1CC[C@@H]1[C@@H]2CCCN1CCO (racemic) [trans-7j, (±)-(4aR,13bS)-10,11-dichloro-4-(2-hydroxyethyl)-1,2,3,4,4a,5,6,13b-octahydro-8H-[1,6]naphthyridino[5,6-b]quinazolin-8-one] | 0.0001 to 0.1
COc1cc2nc3n(c(=O)c2cc1C#N)CC[C@@H]1[C@@H]3CCCN1C (racemic) [trans-7jj, (±)-(4aR,13bS)-11-methoxy-4-methyl-8-oxo-2,3,4,4a,5,6,8,13b-octahydro-1H-[1,6]naphthyridino[5,6-b]quinazoline-10-carbonitrile] | 1 to 10
